Here are results for 1 molecule from paper PMC12587545, “Noncytotoxic polymyxin derivatives enhance antibiotic action against multidrug-resistant Gram-negative bacteria” (Antimicrobial Agents and Chemotherapy, 2025).

Positions of bridges follow the written chain, without caps; N, C: chain ends. Non-standard residues stand in square brackets, D forms with d. Residues, ends and D or L forms follow the SMILES beside them. *: point of attachment. Octanoyl = CCCCCCCC(=O)*; Dab = NCC[C@H](N)C(=O)O; Dap = NC[C@H](N)C(=O)O A value given as a limit tells only on which side of the number the result lay.

For one series, the system named is K. pneumoniae. As to the method: (§1) The bacterial isolates were acquired from ATCC or the Canadian Ward Surveillance (CANWARD) study ([56]). CANWARD isolates were collected from infected patients admitted to participating medical centers across Canada.
(§2) The antibiotic or compound was serially diluted 2-fold in CAMHB on a 96-well plate and was incubated with equal volumes of bacterial inoculum overnight at 37°C. Wells containing only media were used as negative controls, and wells containing only bacteria were used as positive controls. Antibacterial activity was measured by the MIC, or the lowest concentration of agent required to inhibit visible bacterial growth. Turbidity was confirmed with a Molecular Devices (United States) EMax Plus microplate reader at a wavelength of 590 nm.

The subject of a further series is P. aeruginosa. The method, then:
as §1, §2

Another series concerns HK-2. It counts as cell-based, human. Particulars: 48 h. The method, then:
(§3) Kidney cell lines, HK-2 (CRL-2190) and RPTEC/TERT1 (CRL-4031), and neural cell lines, U-87 MG (HTB-14) and SK-N-SH (HTB-11), were obtained from American Type Culture Collection (ATCC). HK-2 cells were cultured in T75 flasks with keratinocyte serum-free medium supplemented with bovine pituitary extract, human epidermal growth factor, and 2.5% FBS. RPTEC/TERT1 cells were cultured in T75 flasks with Dulbecco’s modified Eagle’s medium:F12 supplemented with the ATCC (United States) human telomerase reverse transcriptase immortalized RPTEC growth kit, G418 (0.1 mg/mL final concentration), and 2% FBS. Both U-87 MG and SK-N-SH cells were cultured in minimal essential media supplemented with 10% FBS. The cells were incubated in a humidified atmosphere at 5% CO2 and at 37°C.
(§4) The cytotoxicity of the compounds toward the mammalian cell lines was assessed using the cell viability assay protocols as previously described ([29]). Designated wells in 96-well plates were seeded with HK-2 (5,000 cells), RPTEC/TERT1 (8,000 cells), U-87 MG (7,000 cells), or SK-N-SH (8,000 cells) in 50 µL. Blank wells received an identical volume of only media. After incubating the cells for 24 h, all wells were treated with varying concentrations of the compound and incubated for 48 h. Subsequently, PrestoBlue reagent (Invitrogen, United States) was added to the wells to a final concentration of 10% (vol/vol), and the plate was incubated for an additional 1 h. Fluorescence was measured with a SpectraMax M2 plate reader (Molecular Devices, United States), at excitation and emission wavelengths of 560 and 590 nm, respectively. Values from the blank wells were subtracted from the corresponding wells containing cells. The cell viability relative to the controls with vehicle was calculated and presented as mean ± standard deviation of at least two experiments with five replicates each. CC50 values were obtained using GraphPad Prism (version 10.4.1) by non-linear regression (four-parameter logistic fit).

In a further series the test system is SK-N-SH. In words: Cell viability assay (PrestoBlue). In kind it is cell-based. Particulars: 24 h. As to the method: as §3
as §4, with “After incubating the cells for 24 h, all wells were treated with varying concentrations of the compound and incubated for 48 h.” left out

The next series concerns U-87 MG. The experiment in a line: Cell viability assay (PrestoBlue). It counts as cell-based. The conditions noted are these: 24 h. As to the method: as §3
as §4, with “After incubating the cells for 24 h, all wells were treated with varying concentrations of the compound and incubated for 48 h.” left out

Consider `CCCCCCCC(=O)N[C@@H](CN)C(=O)N[C@H](C(=O)N[C@@H](CN)C(=O)N[C@H]1CCNC(=O)[C@H]([C@@H](C)O)NC(=O)[C@H](CN)NC(=O)[C@H](CN)NC(=O)[C@H](CC(C)C)NC(=O)[C@@H](Cc2ccccc2)NC(=O)[C@H](CN)NC1=O)[C@@H](C)O` [Compound 1] (Octanoyl-[Dap]T[Dap][Dab][Dap][dF]L[Dap][Dap]T; lactam 4-C), for which the MIC with K. pneumoniae and in the series with P. aeruginosa was more than 128 µg/mL each time. Besides, the “CC50 in HK-2” value with HK-2 amounted to 238.7 µM. For the same molecule, the cell viability result in the series with SK-N-SH and in the series on U-87 MG was “exceeding 100%” each time.
